Experimental findings from ChEMBL document CHEMBL5303573, “Mapping human microbiome drug metabolism by gut bacteria and their genes” (Nature, 2019) are described below.

Holding throughout (format): ADME
Holding throughout (parameters): dose 2 uM
Holding throughout (conditions): 2 µM

In one data set the target is T1, Acyltransferase (Bacteroides thetaiotaomicron, UniProt Q8A575).
T1 sequence (Q8A575 whole entry): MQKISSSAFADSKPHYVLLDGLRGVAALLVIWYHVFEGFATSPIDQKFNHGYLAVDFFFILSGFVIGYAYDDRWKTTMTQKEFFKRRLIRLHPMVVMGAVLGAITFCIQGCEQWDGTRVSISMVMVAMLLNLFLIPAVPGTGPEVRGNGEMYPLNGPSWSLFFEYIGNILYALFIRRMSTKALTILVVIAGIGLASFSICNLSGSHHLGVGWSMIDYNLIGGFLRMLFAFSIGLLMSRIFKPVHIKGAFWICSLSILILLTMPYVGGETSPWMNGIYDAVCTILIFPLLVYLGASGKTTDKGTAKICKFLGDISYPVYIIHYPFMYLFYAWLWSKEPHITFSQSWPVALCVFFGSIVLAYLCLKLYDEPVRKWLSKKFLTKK
The data set is described as follows: (§1) The drug is tested on Bacteroides thetaiotaomicron strain: VPI-5482 for biotransformation. The drug concentrations were measured before and after a 12-h incubation by liquid-chromatography-coupled mass spectrometry (LC–MS).

The next data set concerns the target T2, Xylanase (Bacteroides thetaiotaomicron, UniProt Q8A8H5).
T2 sequence (Q8A8H5 whole entry): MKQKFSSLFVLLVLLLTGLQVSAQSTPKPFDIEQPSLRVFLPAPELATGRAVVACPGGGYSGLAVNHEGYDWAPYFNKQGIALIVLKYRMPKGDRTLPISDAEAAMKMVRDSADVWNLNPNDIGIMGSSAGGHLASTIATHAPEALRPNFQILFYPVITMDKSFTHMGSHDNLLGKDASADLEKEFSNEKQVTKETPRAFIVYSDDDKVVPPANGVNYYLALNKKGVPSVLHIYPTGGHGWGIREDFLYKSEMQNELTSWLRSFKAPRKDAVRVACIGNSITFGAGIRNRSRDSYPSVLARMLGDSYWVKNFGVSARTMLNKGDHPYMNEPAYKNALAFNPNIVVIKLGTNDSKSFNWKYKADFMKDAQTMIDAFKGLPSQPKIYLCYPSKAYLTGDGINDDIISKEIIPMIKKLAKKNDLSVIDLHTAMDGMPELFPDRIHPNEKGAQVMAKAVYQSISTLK
Described as §1.

The target of data set [1] is T3, Acetyl esterase (Acetylxylosidase) (Bacteroides thetaiotaomicron, UniProt Q8ABF8).
T3 sequence (Q8ABF8 whole entry): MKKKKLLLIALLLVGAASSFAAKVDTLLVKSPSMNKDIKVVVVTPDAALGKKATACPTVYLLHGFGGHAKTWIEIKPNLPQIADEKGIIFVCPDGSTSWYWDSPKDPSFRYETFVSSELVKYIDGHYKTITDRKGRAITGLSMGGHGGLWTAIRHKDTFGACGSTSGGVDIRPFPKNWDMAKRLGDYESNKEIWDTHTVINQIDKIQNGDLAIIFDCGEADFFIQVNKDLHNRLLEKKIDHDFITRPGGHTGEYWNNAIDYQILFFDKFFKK
Described as §1.

For data set [2], the target named is T4, Sialic acid-specific 9-O-acetylesterase (Bacteroides thetaiotaomicron, UniProt Q8A0D0).
T4 sequence (Q8A0D0 whole entry): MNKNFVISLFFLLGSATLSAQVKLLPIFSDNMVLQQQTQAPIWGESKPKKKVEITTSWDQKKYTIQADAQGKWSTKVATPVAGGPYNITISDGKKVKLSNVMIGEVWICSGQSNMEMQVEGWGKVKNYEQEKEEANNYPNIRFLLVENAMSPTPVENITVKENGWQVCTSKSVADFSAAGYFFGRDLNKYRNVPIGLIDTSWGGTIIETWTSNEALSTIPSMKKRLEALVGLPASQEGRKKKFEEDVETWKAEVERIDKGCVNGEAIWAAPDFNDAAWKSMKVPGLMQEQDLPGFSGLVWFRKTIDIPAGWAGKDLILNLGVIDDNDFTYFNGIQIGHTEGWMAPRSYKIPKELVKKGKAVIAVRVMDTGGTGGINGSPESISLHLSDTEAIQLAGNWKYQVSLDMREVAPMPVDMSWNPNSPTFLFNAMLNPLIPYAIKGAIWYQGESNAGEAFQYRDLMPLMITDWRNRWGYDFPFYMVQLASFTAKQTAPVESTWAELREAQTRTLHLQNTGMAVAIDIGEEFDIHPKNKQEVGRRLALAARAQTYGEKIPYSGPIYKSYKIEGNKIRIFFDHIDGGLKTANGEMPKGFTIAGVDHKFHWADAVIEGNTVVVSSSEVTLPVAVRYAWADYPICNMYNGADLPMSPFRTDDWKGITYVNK
Described as §1.

In another data set the target is T5, Lipoprotein (Bacteroides thetaiotaomicron, UniProt Q8A343).
T5 sequence (Q8A343 whole entry): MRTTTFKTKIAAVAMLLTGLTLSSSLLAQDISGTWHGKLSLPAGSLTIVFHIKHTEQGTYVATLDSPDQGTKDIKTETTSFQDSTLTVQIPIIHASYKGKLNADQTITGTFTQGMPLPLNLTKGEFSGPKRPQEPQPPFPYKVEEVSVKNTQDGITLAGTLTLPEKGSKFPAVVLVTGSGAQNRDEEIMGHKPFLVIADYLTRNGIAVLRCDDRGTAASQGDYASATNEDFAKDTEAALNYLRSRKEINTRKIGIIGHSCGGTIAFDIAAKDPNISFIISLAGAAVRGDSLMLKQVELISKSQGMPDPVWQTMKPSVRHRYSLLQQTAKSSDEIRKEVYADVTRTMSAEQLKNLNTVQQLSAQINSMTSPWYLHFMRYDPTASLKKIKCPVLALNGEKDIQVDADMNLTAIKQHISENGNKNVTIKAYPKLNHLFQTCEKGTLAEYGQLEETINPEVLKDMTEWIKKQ
Described as §1.

The target of another data set is T6, Acylhydrolase (Bacteroides thetaiotaomicron, UniProt Q8AA96).
T6 sequence (Q8AA96 whole entry): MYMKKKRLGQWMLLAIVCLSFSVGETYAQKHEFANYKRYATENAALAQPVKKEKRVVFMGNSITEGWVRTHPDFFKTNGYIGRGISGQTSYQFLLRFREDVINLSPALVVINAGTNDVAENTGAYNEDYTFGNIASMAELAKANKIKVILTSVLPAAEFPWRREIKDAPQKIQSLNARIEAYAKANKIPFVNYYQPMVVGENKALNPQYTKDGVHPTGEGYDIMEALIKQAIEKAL
The data set is described as §1.

For data set [3], the target named is T7, NADH dehydrogenase/NAD(P)H nitroreductase (Bacteroides thetaiotaomicron, UniProt Q8A8L9).
T7 sequence (Q8A8L9 whole entry): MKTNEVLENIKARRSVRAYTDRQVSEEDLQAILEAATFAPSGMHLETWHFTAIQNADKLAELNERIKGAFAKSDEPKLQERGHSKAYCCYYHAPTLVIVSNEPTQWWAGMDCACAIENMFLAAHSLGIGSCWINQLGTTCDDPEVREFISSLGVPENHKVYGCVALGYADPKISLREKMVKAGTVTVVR
The data set is described as §1.

Turning to `C[C@@H]1CC[C@H]2[C@@H](C)C(=O)O[C@@H]3O[C@@]4(C)CC[C@@H]1[C@]32OO4` [ARTEMISININ], the “Bacterial Biotransformation” value (at Acyltransferase; at Xylanase; in data set [1]; in data set [2]; on Lipoprotein; on Acylhydrolase) was “Compound NOT metabolized” throughout. Also, the “Bacterial Biotransformation” value in data set [3] is “Compound NOT metabolized”.
In the case of `CC(=O)Oc1ccc(C(c2ccc(OC(C)=O)cc2)c2ccccn2)cc1` [BISACODYL], the “Bacterial Biotransformation” value at Acyltransferase is “Compound NOT metabolized”; at Xylanase it was “Compound metabolized”; in data set [1] it was “Compound metabolized”; in data set [2] it was “Compound metabolized”; at Lipoprotein, “Compound NOT metabolized”; on Acylhydrolase it was “Compound metabolized”. In data set [3], the “Bacterial Biotransformation” value is “Compound NOT metabolized”.
Turning to `C#C[C@]1(O)CC[C@H]2[C@@H]3CCC4=Cc5oncc5C[C@]4(C)[C@H]3CC[C@@]21C` [DANAZOL], the “Bacterial Biotransformation” value on Acyltransferase was “Compound NOT metabolized”; at Xylanase, “Compound NOT metabolized”; in data set [1], “Compound NOT metabolized”; in data set [2], “Compound NOT metabolized”; on Lipoprotein, “Compound NOT metabolized”; on Acylhydrolase, “Compound metabolized”. Moreover, the “Bacterial Biotransformation” value in data set [3] is listed as “Compound NOT metabolized”.
On to `CC(=O)OCC(=O)[C@@]12N=C(C)O[C@@H]1C[C@H]1[C@@H]3CCC4=CC(=O)C=C[C@]4(C)[C@H]3[C@@H](O)C[C@@]12C` [DEFLAZACORT], for which the “Bacterial Biotransformation” value was “Compound NOT metabolized” on Acyltransferase; “Compound NOT metabolized” at Xylanase; “Compound NOT metabolized” in data set [1]; “Compound NOT metabolized” in data set [2]; “Compound NOT metabolized” on Lipoprotein; “Compound metabolized” on Acylhydrolase. In data set [3], the “Bacterial Biotransformation” value is reported as “Compound NOT metabolized”.
Regarding `CC(=O)Nc1ccc(OC(C)=O)cc1` [DIACETAMATE], the “Bacterial Biotransformation” value on Acyltransferase is listed as “Compound NOT metabolized”; at Xylanase, “Compound metabolized”; in data set [1] it was “Compound metabolized”; in data set [2], “Compound metabolized”; on Lipoprotein it was “Compound NOT metabolized”; on Acylhydrolase, “Compound metabolized”. Besides, the “Bacterial Biotransformation” value in data set [3] was “Compound NOT metabolized”.
For the compound `CCN(CC)C(=O)/C(C#N)=C/c1cc(O)c(O)c([N+](=O)[O-])c1` [ENTACAPONE], the “Bacterial Biotransformation” value (at Acyltransferase; at Xylanase; in data set [1]; in data set [2]; on Lipoprotein; on Acylhydrolase) was “Compound NOT metabolized” throughout. Besides, the “Bacterial Biotransformation” value in data set [3] was “Compound metabolized”.
In the case of `CCOC(=O)C1=C(C)NC(C)=C(C(=O)OC)C1c1cccc([N+](=O)[O-])c1` (centres undefined) [NITRENDIPINE], the “Bacterial Biotransformation” value at Acyltransferase is reported as “Compound NOT metabolized”; on Xylanase, “Compound metabolized”; in data set [1], “Compound NOT metabolized”; in data set [2] it was “Compound NOT metabolized”; at Acylhydrolase it was “Compound NOT metabolized”.
As for `COc1ccnc(C[S+]([O-])c2nc3ccc(OC(F)F)cc3[nH]2)c1OC` (centres undefined) [PANTOPRAZOLE], the “Bacterial Biotransformation” value (at Acyltransferase; on Xylanase; in data set [1]; in data set [2]; on Lipoprotein; on Acylhydrolase) was “Compound NOT metabolized” each time. Further, the “Bacterial Biotransformation” value in data set [3] is given as “Compound NOT metabolized”.
As for `Nc1ccc(/N=N/c2ccccc2)c(N)n1` [PHENAZOPYRIDINE], the “Bacterial Biotransformation” value (at Acyltransferase; at Xylanase; in data set [1]; in data set [2]; at Lipoprotein; on Acylhydrolase) was “Compound NOT metabolized” each time. The “Bacterial Biotransformation” value in data set [3] is on record as “Compound NOT metabolized”.
In the case of `CC(=O)SCC(Cc1ccccc1)C(=O)NCC(=O)OCc1ccccc1` (centres undefined) [RACECADOTRIL], the “Bacterial Biotransformation” value is recorded as “Compound NOT metabolized” at Acyltransferase; “Compound metabolized” on Xylanase; “Compound metabolized” in data set [1]; “Compound metabolized” in data set [2]; “Compound metabolized” on Lipoprotein; “Compound metabolized” on Acylhydrolase. The “Bacterial Biotransformation” value in data set [3] is listed as “Compound NOT metabolized”.
For the compound `CC(=O)OCC(=O)NCCCOc1cccc(CN2CCCCC2)c1` [ROXATIDINE ACETATE], the “Bacterial Biotransformation” value at Acyltransferase is on record as “Compound NOT metabolized”; at Xylanase, “Compound metabolized”; in data set [1] it was “Compound metabolized”; in data set [2], “Compound NOT metabolized”; at Lipoprotein, “Compound NOT metabolized”; at Acylhydrolase, “Compound metabolized”. In data set [3], the “Bacterial Biotransformation” value is “Compound NOT metabolized”.
As for `O=C(O)c1cc(/N=N/c2ccc(S(=O)(=O)Nc3ccccn3)cc2)ccc1O` [SULFASALAZINE], the “Bacterial Biotransformation” value (at Acyltransferase; in data set [2]; on Lipoprotein; in data set [3]) was “Compound NOT metabolized” in each case.
